According to patent US20220062300A1 (priority 2019, published 2022):

How the values were obtained:
[1] = system: formalin-induced pain behavior; experiment: Formalin test (1% formalin, hind paw shakes) with isobologram analysis; assay type: in vivo; conditions: IM, rat; for dose giving maximal antinociception effect: both phases of the formalin test; for dose reaching a significant difference in % antinociception: phase 2 of the formalin test; for ED30 (dose delivering 30% of the maximal effect): single drug, 60 min before formalin, % antinociception
Text: Male Wistar rats aged 7-8 weeks weighting 175-199 g were used in the experiments. Rats had free access to food and water before the experiments. All experimental procedures complied with the Guidelines on Ethical Standards for investigations of Experimental Pain in Animals (IASP, 1983). Each rat was used only once and was sacrificed in a CO2-saturated glass bell. The formalin model is used mainly with rodents. The test consists in the subcutaneous administration of formalin (formaldehyde in concentrations ranging from 1 to 5%), in a 20-25 μL volume for mice 30-100 μL for rats. The injection is usually administered in the dorsal surface of the right hind paw, and animals are sacrificed once the test is finished. The formalin test describes several behaviors, such as biting, licking and shaking the injected hind paw. Hind paw shaking is the most used parameter for quantifying the degree of pain. The formalin test in rodents is biphasic. […] The second phase (tonic or inflammatory) onsets 15-20 minutes after the injection and lasts 20-40 minutes. The 1%-formalin injection induced the typical shaking behavior, characterized by a brisk withdrawal or bending of the injected hind paw. The temporal course was assessed in this figure after the 1%-formalin injection, and the biphasic (phase 1 and 2) behavior characterizing this model was observed. An isobologram analysis was employed to assess aceclofenac and betamethasone interactions. […] When connecting the dots an additivity line is obtained, useful to establish the type of interaction of both compounds under study. Dose-response curves (DRC) are constructed to obtain the ED30's of each active principle. At least 4 doses of each active principle are administered by IM injection to at least 6 animals. […] Before the test, the drugs were diluted and mixed for intramuscular administration. […] This dose was statistically compared to the dose that theoretically is the simple addition of effects, and which can be obtained with the following formula: […] Where R is the potency ratio of drugs 1 and 2 administered alone; P1 is the proportion of drug 1 in the mixture; P2 is the proportion of drug 2 in the mixture. […] The interaction type is determined by the graph region where the experimental value is located in relation to the theoretical value. If the value lies below the additivity line and is statistically different from the theoretical value, then the interaction is synergic (an effect greater than the sum of effects of each drug); if the value lies near the additivity line and is not statistically different from the theoretical value, then the interaction is only additive (an effect equal to the sum of effects of each drug). If the value lies […] and is statistically different from the theoretical value, then the interaction is subadditive or antagonistic. A software calculates the interaction index (I.I.) of two drugs, obtained with the following formula: I.I.=Experimental ED30/theoretical ED30 If the index is less than 1.0, then the interaction is synergic; if it is equal to 1.0, the interaction is additive, and if it is greater than 1.0, the interaction is antagonistic. For twelve hours before the experimental preclinical phase, rats fasted but had free access to water. […] The results are expressed as the average±standard error (SE) of at least 6 rats per group. The number of hind paw shakes/minute was graphed vs. time. The area under the curve (AUC) of temporal courses is a global expression of the effect intensity and duration, and was calculated with the trapezoid method. The antinoception percentage (%) was calculated with the following formula: % Antinociception=((Vehicle-Compound)/Vehicle)×100. The AUC's and % antinociception were evaluated by means of an analysis of variance (ANOVA) and a Tukey's test. Results with P<0.05 were considered statistically significant.

[2] = cited from earlier work

| SMILES | dose giving maximal antinociception effect [1] [mg/kg] | dose reaching a significant difference in % antinociception [1] [mg/kg] | number of shakes in phase 2 of the formalin test, expressed as % antinociception [1] | ED30 (dose delivering 30% of the maximal effect) [1] [mg/kg] | ED30 (dose delivering 30% of the maximal effect) ([1]; listed as aceclofenac) [mg/kg] | ED30 (dose delivering 30% of the maximal effect) ([1]; listed as betamethasone) [mg/kg] | solubility in water [2] |
| --- | --- | --- | --- | --- | --- | --- | --- |
| O=C(O)COC(=O)Cc1ccccc1Nc1c(Cl)cccc1Cl [Aceclofenac, [(2-{2,6-dichlorophenyl)amino}phenylacetooxyacetic acid]] | 31.6 | 17.7 | decreased in a dose-dependent way | 1.8662 | 13.472 | – | – |
| C[C@H]1C[C@H]2[C@@H]3CCC4=CC(=O)C=C[C@]4(C)[C@@]3(F)[C@@H](O)C[C@]2(C)[C@@]1(O)C(=O)CO [Betamethasone, (11β,16β)-9-Fluoro-11,17,21-trihydroxy-16-methylpregna-1,4-diene-3,20-dione] | 31.6 | 17.7 | decreased in a dose-dependent way | 13.4722 | – | 13.472 | insoluble in water |
